Read-outs that look alike come from different tables or passages of the source.
Columns and labels:
ACHN = assay: NCI DTP in-vitro dose response, Renal Cancer; format: cell-based
UO-31 = assay: NCI DTP in-vitro dose response, Renal Cancer; format: cell-based
A498 = assay: NCI DTP in-vitro dose response, Renal Cancer; format: cell-based
CAKI-1 = assay: NCI DTP in-vitro dose response, Renal Cancer; format: cell-based
786-0 = assay: NCI DTP in-vitro dose response, Renal Cancer; format: cell-based
TK-10 = assay: NCI DTP in-vitro dose response, Renal Cancer; format: cell-based
SN12C = assay: NCI DTP in-vitro dose response, Renal Cancer; format: cell-based
SK-MEL-5 = assay: NCI DTP in-vitro dose response, Melanoma; format: cell-based
SK-MEL-28 = assay: NCI DTP in-vitro dose response, Melanoma; format: cell-based
SK-MEL-2 = assay: NCI DTP in-vitro dose response, Melanoma; format: cell-based
UACC-257 = assay: NCI DTP in-vitro dose response, Melanoma; format: cell-based
UACC-62 = assay: NCI DTP in-vitro dose response, Melanoma; format: cell-based
LOX IMVI = assay: NCI DTP in-vitro dose response, Melanoma; format: cell-based
M14 = assay: NCI DTP in-vitro dose response, Melanoma; format: cell-based
MALME-3M = assay: NCI DTP in-vitro dose response, Melanoma; format: cell-based

Structure (SMILES): CCc1nc2ccc3c(c2[nH]1)C(=O)c1ccccc1C3=O [TABLE 4-7]
- CC50 (ACHN): > 100 µM
- TGI (ACHN): 5.46E−5
- Percent Growth (ACHN; Log10 Concentration −4.0): −5%
- Percent Growth (ACHN; Log10 Concentration −5.0): 14%
- Percent Growth (ACHN; Log10 Concentration −6.0): 62%
- Percent Growth (ACHN; Log10 Concentration −7.0): 85%
- Percent Growth (ACHN; Log10 Concentration −8.0): 94%
- GI50 (ACHN; read-out: GI50): 1.77 µM
- CC50 (UO-31): > 100 µM
- TGI (UO-31): >1.00E−4
- Percent Growth (UO-31; Log10 Concentration −5.0): 15%
- Percent Growth (UO-31; Log10 Concentration −6.0): 67%
- Percent Growth (UO-31; Log10 Concentration −7.0): 83%
- Percent Growth (UO-31; Log10 Concentration −8.0): 88%
- GI50 (UO-31; read-out: GI50): 2.12 µM
- CC50 (A498): > 100 µM
- TGI (A498): 4.27E−5
- Percent Growth (A498; Log10 Concentration −4.0): −20%
- Percent Growth (A498; Log10 Concentration −5.0): 34%
- Percent Growth (A498; Log10 Concentration −6.0): 74%
- Percent Growth (A498; Log10 Concentration −7.0): 97%
- Percent Growth (A498; Log10 Concentration −8.0): 94%
- GI50 (A498; read-out: GI50): 3.89 µM
- CC50 (CAKI-1): > 100 µM
- TGI (CAKI-1): >1.00E−4
- Percent Growth (CAKI-1; Log10 Concentration −4.0): 9%
- Percent Growth (CAKI-1; Log10 Concentration −5.0): 20%
- Percent Growth (CAKI-1; Log10 Concentration −6.0): 76%
- Percent Growth (CAKI-1; Log10 Concentration −7.0): 91%
- Percent Growth (CAKI-1; Log10 Concentration −8.0): 97%
- GI50 (CAKI-1; read-out: GI50): 2.9 µM
- CC50 (786-0): > 100 µM
- TGI (786-0): >1.00E−4
- Percent Growth (786-0; Log10 Concentration −4.0): 38%
- Percent Growth (786-0; Log10 Concentration −5.0): 68%
- Percent Growth (786-0; Log10 Concentration −6.0): 95%
- Percent Growth (786-0; Log10 Concentration −7.0): 102%
- Percent Growth (786-0; Log10 Concentration −8.0): 104%
- GI50 (786-0; read-out: GI50): 40.2 µM
- CC50 (TK-10): > 100 µM
- TGI (TK-10): >1.00E−4
- Percent Growth (TK-10; Log10 Concentration −4.0): 3%
- Percent Growth (TK-10; Log10 Concentration −5.0): 39%
- Percent Growth (TK-10; Log10 Concentration −6.0): 75%
- Percent Growth (TK-10; Log10 Concentration −7.0): 113%
- Percent Growth (TK-10; Log10 Concentration −8.0): 95%
- GI50 (TK-10; read-out: GI50): 4.88 µM
- CC50 (SN12C): > 100 µM
- TGI (SN12C): >1.00E−4
- Percent Growth (SN12C; Log10 Concentration −4.0): 18%
- Percent Growth (SN12C; Log10 Concentration −5.0): 46%
- Percent Growth (SN12C; Log10 Concentration −6.0): 74%
- Percent Growth (SN12C; Log10 Concentration −7.0): 80%
- Percent Growth (SN12C; Log10 Concentration −8.0): 74%
- GI50 (SN12C; read-out: GI50): 7.05 µM

Structure (SMILES): O=C1c2ccccc2C(=O)c2c1ccc1nccnc21 [TABLE 5-5]
- CC50 (SK-MEL-5): 44.4 µM
- TGI (SK-MEL-5): 1.71E−5
- Percent Growth (SK-MEL-5; Log10 Concentration −4.0): −92%
- Percent Growth (SK-MEL-5; Log10 Concentration −5.0): 28%
- Percent Growth (SK-MEL-5; Log10 Concentration −6.0): 82%
- Percent Growth (SK-MEL-5; Log10 Concentration −7.0): 90%
- Percent Growth (SK-MEL-5; Log10 Concentration −8.0): 90%
- GI50 (SK-MEL-5; read-out: GI50): 3.93 µM
- CC50 (SK-MEL-28): > 100 µM
- TGI (SK-MEL-28): 9.11E−5
- Percent Growth (SK-MEL-28; Log10 Concentration −4.0): −3%
- Percent Growth (SK-MEL-28; Log10 Concentration −5.0): 75%
- Percent Growth (SK-MEL-28; Log10 Concentration −6.0): 104%
- Percent Growth (SK-MEL-28; Log10 Concentration −7.0): 101%
- Percent Growth (SK-MEL-28; Log10 Concentration −8.0): 100%
- GI50 (SK-MEL-28; read-out: GI50): 21 µM
- CC50 (SK-MEL-2): > 100 µM
- TGI (SK-MEL-2): 5.59E−5
- Percent Growth (SK-MEL-2; Log10 Concentration −4.0): −20%
- Percent Growth (SK-MEL-2; Log10 Concentration −5.0): 58%
- Percent Growth (SK-MEL-2; Log10 Concentration −6.0): 102%
- Percent Growth (SK-MEL-2; Log10 Concentration −7.0): 85%
- Percent Growth (SK-MEL-2; Log10 Concentration −8.0): 97%
- GI50 (SK-MEL-2; read-out: GI50): 12.7 µM
- CC50 (UACC-257): > 100 µM
- TGI (UACC-257): 6.83E−5
- Percent Growth (UACC-257; Log10 Concentration −4.0): −11%
- Percent Growth (UACC-257; Log10 Concentration −5.0): 58%
- Percent Growth (UACC-257; Log10 Concentration −6.0): 99%
- Percent Growth (UACC-257; Log10 Concentration −7.0): 88%
- Percent Growth (UACC-257; Log10 Concentration −8.0): 95%
- GI50 (UACC-257; read-out: GI50): 13 µM
- CC50 (UACC-62): > 100 µM
- TGI (UACC-62): 5.61E−5
- Percent Growth (UACC-62; Log10 Concentration −4.0): −20%
- Percent Growth (UACC-62; Log10 Concentration −5.0): 60%
- Percent Growth (UACC-62; Log10 Concentration −6.0): 87%
- Percent Growth (UACC-62; Log10 Concentration −7.0): 84%
- Percent Growth (UACC-62; Log10 Concentration −8.0): 92%
- GI50 (UACC-62; read-out: GI50): 13.3 µM
- CC50 (LOX IMVI): > 100 µM
- TGI (LOX IMVI): 3.89E−5
- Percent Growth (LOX IMVI; Log10 Concentration −4.0): −22%
- Percent Growth (LOX IMVI; Log10 Concentration −5.0): 31%
- Percent Growth (LOX IMVI; Log10 Concentration −6.0): 81%
- Percent Growth (LOX IMVI; Log10 Concentration −7.0): 85%
- Percent Growth (LOX IMVI; Log10 Concentration −8.0): 90%
- GI50 (LOX IMVI; read-out: GI50): 4.2 µM
- CC50 (M14): > 100 µM
- TGI (M14): >1.00E−4
- Percent Growth (M14; Log10 Concentration −5.0): 34%
- Percent Growth (M14; Log10 Concentration −6.0): 89%
- Percent Growth (M14; Log10 Concentration −7.0): 91%
- Percent Growth (M14; Log10 Concentration −8.0): 95%
- GI50 (M14; read-out: GI50): 5.14 µM
- CC50 (MALME-3M): 70.8 µM
- TGI (MALME-3M): 2.07E−5
- Percent Growth (MALME-3M; Log10 Concentration −4.0): −64%
- Percent Growth (MALME-3M; Log10 Concentration −5.0): 30%
- Percent Growth (MALME-3M; Log10 Concentration −6.0): 88%
- Percent Growth (MALME-3M; Log10 Concentration −7.0): 91%
- Percent Growth (MALME-3M; Log10 Concentration −8.0): 97%
- GI50 (MALME-3M; read-out: GI50): 4.48 µM

Structure (SMILES): O=C1c2ccccc2C(=O)c2c1ccc1nccnc21 [TABLE 5-8]
- GI50 (DU-145; DU-145): 11.4 µM
- TGI (DU-145; DU-145): 3.43E−5
- Percent Growth (DU-145; DU-145, Log10 Concentration −4.0): −49%
- Percent Growth (DU-145; DU-145, Log10 Concentration −5.0): 56%
- Percent Growth (DU-145; DU-145, Log10 Concentration −6.0): 96%
- Percent Growth (DU-145; DU-145, Log10 Concentration −7.0): 95%
- Percent Growth (DU-145; DU-145, Log10 Concentration −8.0): 102%
- CC50 (DU-145; read-out: LC50, DU-145): > 100 µM
- TGI (PC-3; PC-3): >1.00E−4
- Percent Growth (PC-3; PC-3, Log10 Concentration −4.0): 50%
- Percent Growth (PC-3; PC-3, Log10 Concentration −5.0): 50%
- Percent Growth (PC-3; PC-3, Log10 Concentration −6.0): 69%
- Percent Growth (PC-3; PC-3, Log10 Concentration −7.0): 92%
- Percent Growth (PC-3; PC-3, Log10 Concentration −8.0): 101%
- CC50 (PC-3; read-out: LC50, PC-3): > 100 µM
